In the assay the target is T1, SLC5A1 (Homo sapiens, UniProt P13866).
T1 sequence (P13866 1-664): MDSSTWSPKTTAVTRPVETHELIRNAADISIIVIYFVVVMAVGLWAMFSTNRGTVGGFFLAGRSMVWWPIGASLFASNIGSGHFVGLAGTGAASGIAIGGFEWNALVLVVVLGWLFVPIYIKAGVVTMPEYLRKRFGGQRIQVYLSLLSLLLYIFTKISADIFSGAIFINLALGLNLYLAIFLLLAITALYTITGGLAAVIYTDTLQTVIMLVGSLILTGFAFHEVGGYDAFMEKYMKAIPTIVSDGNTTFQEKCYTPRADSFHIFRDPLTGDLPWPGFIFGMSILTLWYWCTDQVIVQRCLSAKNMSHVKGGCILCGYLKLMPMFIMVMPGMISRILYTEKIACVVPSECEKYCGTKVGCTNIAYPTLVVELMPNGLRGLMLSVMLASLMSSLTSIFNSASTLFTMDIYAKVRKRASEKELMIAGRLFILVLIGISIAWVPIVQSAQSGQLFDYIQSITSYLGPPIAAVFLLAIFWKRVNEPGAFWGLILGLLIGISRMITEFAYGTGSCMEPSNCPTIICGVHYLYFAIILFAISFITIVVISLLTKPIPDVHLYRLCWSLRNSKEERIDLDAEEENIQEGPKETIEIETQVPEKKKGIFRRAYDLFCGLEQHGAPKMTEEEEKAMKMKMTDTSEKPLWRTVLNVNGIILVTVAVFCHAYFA
The experiment in a line: SPR. The format is binding.

Structures are written as SMILES.

What is called Kd is a measure of binding affinity in units of concentration. Read a low Kd as tighter binding.

In turn, `CC(C)=CCC[C@](C)(O[C@@H]1O[C@H](CO)[C@@H](O)[C@H](O)[C@H]1O)[C@H]1CC[C@]2(C)[C@@H]1[C@H](O)C[C@@H]1[C@@]3(C)CC[C@H](O[C@@H]4O[C@H](CO)[C@@H](O)[C@H](O)[C@H]4O[C@@H]4O[C@H](CO)[C@@H](O)[C@H](O)[C@H]4O)C(C)(C)[C@@H]3CC[C@]12C` [ginsenoside Rd] yielded a Kd of 680 nM.

Values taken from PMC9459060 (Journal of Ginseng Research, 2022).
